Data reported in patent publication US20190038571A1, “Orally Available Small Molecules to Inhibit the Function of the Complement System” (priority 2017, published 2019).

What was measured:
[1] = in vivo; cited from earlier work
[2] = system: classical complement pathway; experiment: sheep erythrocyte lysis assay (complement-mediated lysis of sensitized sheep erythrocytes in normal human serum); type: cell-based; conditions: for Inhibition of complement-mediated sheep erythrocyte lysis: 240 nM to 50 uM added to normal human serum, 37° C., 30 min, hemoglobin absorption at 412 nm
Method: FIG. 1. […] Various concentrations of pterostilbene, ranging from 240 nM to 50 uM were added to normal human serum, which was then incubated at 37° C. with sensitized sheep erythrocytes.
The lysis of the sheep erythrocytes is mediated by the classical complement pathway.
Various concentrations of pterostilbene, ranging from 240 nM to 50 uM were added to normal human serum, which was then incubated at 37° C. with sensitized sheep erythrocytes. After a 30 min incubation, the remaining unlysed erythrocytes were pelleted by centrifugation and the amount of hemoglobin released by cell lysis was quantified by absorption spectroscopy at wavelength of 412 nm. Inhibition of lysis indicates reduced complement activity. This is representative data from 3 separate experiments.

CA1 neurons = conditions: in vivo; cited from earlier work
C5a receptor = biological target: T1, C5a receptor (Mus musculus, UniProt P30993); conditions: cited from earlier work
T1 sequence (P30993 1-351): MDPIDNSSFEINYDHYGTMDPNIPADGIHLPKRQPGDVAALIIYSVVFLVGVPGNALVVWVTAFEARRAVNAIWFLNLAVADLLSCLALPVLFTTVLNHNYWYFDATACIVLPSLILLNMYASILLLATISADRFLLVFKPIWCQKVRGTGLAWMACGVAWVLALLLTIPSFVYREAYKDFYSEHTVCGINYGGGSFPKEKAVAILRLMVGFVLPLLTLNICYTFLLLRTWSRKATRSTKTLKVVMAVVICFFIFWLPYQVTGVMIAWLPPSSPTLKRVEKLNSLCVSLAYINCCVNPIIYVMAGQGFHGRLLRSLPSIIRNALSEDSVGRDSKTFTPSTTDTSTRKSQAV

| Compound | bioavailability [1] | Inhibition of complement-mediated sheep erythrocyte lysis [2] | protection of CA1 neurons from ischemia reperfusion damage (CA1 neurons) | beta amyloid induced loss of MAP-2 (C5a receptor) | concentration active to inhibit complement system ([2]; in human serum) | potency in the sheep erythrocyte lysis assay relative to the other stilbene ([2]; pterostilbene versus resveratrol) |
| --- | --- | --- | --- | --- | --- | --- |
| Oc1ccc(C=Cc2cc(O)cc(O)c2)cc1 [Resveratrol] | poor bioavailability | active | protects CA1 neurons from ischemia reperfusion damage | – | – | – |
| PMX53 | – | – | – | blocked | – | – |
| COc1cc(/C=C/c2ccc(O)cc2)cc(OC)c1 [CCB-695, pterostilbene] | superior pharmacokinetics and bioavailability | inhibition of complement-mediated sheep erythrocyte lysis | – | – | lower than 1 μM | greater potency than resveratrol |
